Laboratory results as given in ChEMBL document CHEMBL4673346, “Discovery of a benzimidazole series as the first highly potent and selective ACSL1 inhibitors” (Bioorg Med Chem Lett, 2021).
pIC50: −log10 of the molar value. Converted amounts (≈) assume the structure as drawn.

What was measured:
Mus musculus [1] = assay: In vivo inhibition of ACSL1 in mouse assessed as reduction in acyl-coA production in liver administered orally using palmitoleic acid as substrate and measured after 17 hrs; type: functional, organism-based; settings: dose 0.3-1 mg/kg
Mus musculus [2] = assay: In vivo inhibition of ACSL1 in mouse assessed as reduction in acyl-coA production in liver administered orally using oleic acid as substrate and measured after 17 hrs; type: functional, organism-based
[3] = Tmax in rat at 1 mg/kg, po; type: ADME, organism-based; settings: in vivo
[4] = Oral bioavailability in rat at 1 mg/kg; type: ADME, organism-based; settings: in vivo
[5] = Half life in rat at 0.5 mg/kg, iv; type: ADME, organism-based; settings: in vivo
[6] = Volume of distribution at steady state in rat at 0.5 mg/kg, iv; type: ADME, organism-based; settings: in vivo, read-out: Vdss
Cytochrome P450 2C9 = Cytochrome P450 2C9 (Homo sapiens, UniProt P11712); assay: Inhibition of CYP2C9 (unknown origin); type: ADME
[7] = Solubility of compound in pH 6.8; type: physicochemical; settings: buffer
[8] = Metabolic stability in mouse liver microsomes assessed as compound remaining after 30 mins; type: ADME, Microsome; settings: read-out: Stabilty
[9] = target: T1, Long-chain-fatty-acid--CoA ligase 6 (Homo sapiens, UniProt Q9UKU0); assay: Inhibition of recombinant human ACSL6 assessed as reduction in […] prodution incubated for 60 mins in presence of Coenzyme A, ATP and MgCl2 by MALDI-TOF MS analysis
T1 sequence (Q9UKU0 whole entry): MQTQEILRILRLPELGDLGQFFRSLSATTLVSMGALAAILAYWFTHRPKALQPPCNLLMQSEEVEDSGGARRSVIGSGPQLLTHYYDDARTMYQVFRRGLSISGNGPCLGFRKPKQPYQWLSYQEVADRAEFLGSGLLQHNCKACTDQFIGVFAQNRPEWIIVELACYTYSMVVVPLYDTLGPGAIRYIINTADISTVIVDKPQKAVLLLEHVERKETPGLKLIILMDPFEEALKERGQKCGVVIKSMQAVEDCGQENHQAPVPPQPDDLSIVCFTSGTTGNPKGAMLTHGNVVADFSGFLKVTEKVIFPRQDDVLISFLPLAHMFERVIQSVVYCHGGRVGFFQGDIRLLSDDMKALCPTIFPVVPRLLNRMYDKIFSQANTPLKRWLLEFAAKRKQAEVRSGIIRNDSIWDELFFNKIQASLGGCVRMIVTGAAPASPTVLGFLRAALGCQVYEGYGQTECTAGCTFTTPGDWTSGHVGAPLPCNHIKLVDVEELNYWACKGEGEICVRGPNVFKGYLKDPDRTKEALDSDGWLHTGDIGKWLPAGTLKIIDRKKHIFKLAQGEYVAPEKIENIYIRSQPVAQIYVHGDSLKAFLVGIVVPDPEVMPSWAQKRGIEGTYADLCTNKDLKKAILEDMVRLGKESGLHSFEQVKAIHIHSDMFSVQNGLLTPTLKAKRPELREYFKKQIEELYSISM

[10] = target: T2, Long-chain-fatty-acid--CoA ligase 5 (Homo sapiens, UniProt Q9ULC5); assay: Inhibition of recombinant human ACSL5 assessed as reduction in […] prodution incubated for 90 mins in presence of Coenzyme A, ATP and MgCl2 by MALDI-TOF MS analysis
T2 sequence (Q9ULC5 whole entry): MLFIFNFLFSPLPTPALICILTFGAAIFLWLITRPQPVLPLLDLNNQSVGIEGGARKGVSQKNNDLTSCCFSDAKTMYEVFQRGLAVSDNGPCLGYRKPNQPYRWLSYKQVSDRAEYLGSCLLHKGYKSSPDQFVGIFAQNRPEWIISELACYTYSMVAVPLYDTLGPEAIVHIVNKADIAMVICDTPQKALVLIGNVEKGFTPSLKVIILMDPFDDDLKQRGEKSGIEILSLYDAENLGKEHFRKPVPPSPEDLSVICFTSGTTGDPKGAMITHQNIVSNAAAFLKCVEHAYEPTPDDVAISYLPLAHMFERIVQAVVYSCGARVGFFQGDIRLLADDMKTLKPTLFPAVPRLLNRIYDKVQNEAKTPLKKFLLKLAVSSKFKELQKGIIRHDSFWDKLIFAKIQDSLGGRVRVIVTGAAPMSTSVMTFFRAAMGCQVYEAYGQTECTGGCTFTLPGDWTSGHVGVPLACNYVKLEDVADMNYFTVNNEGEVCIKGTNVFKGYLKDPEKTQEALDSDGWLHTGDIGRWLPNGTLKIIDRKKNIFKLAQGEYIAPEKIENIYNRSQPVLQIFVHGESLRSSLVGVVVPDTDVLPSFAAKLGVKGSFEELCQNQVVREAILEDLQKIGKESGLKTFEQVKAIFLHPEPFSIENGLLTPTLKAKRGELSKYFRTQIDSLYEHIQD

Sequence of Cytochrome P450 2C9 (P11712 whole entry): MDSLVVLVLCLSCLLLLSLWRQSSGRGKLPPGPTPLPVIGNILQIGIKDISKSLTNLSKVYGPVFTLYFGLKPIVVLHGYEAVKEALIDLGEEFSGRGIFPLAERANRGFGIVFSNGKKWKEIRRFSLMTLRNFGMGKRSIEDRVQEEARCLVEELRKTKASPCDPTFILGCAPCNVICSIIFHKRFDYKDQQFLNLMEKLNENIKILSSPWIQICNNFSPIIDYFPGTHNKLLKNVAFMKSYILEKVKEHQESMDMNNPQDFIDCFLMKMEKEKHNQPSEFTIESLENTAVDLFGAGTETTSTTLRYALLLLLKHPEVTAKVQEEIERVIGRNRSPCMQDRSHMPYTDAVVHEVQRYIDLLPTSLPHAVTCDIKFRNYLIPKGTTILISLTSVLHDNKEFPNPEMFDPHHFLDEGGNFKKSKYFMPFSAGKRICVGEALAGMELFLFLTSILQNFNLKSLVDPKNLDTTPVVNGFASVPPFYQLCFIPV

- Tmax [3]: 2.5 h
- bioavailability [4]: 119%
- half-life [5]: 2.8 h
- Vd [6]: 0.38 L/kg
- pIC50 (Cytochrome P450 2C9): < 4.70
- solubility [7]: 8.6 µg/mL (≈ 22.7 µM)
- remaining at 0.5 h [8]: 99%
- pIC50 [9]: < 3.70
- pIC50 [10]: < 3.70
SMILES: Cc1cccc(Cc2nc3cc(O[C@H]4CC[C@@H](C(=O)O)CC4)ccc3n2C)c1
- inhibition (Mus musculus [1]): Dose-dependent effect
- inhibition (Mus musculus [2]): Dose-dependent effect
